Experimental data: paper PMC11129182, “Development of Inhibitors, Probes, and PROTAC Provides a Complete Toolbox to Study PARK7 in the Living Cell” (Journal of Medicinal Chemistry, 2024)
Read-outs that look alike come from different tables or passages of the source.

Tests used:
[1] = target: reactive cysteine sites of other proteins in A549 cells (Homo sapiens, UniProt P40222); details: 4 h, P40222_C87 Alpha-taxilin
From the text: (§1) Further, the samples were digested with tosylsulfonyl phenylalanyl chloromethyl ketone (TPCK)-treated trypsin and endoGluC to increase the coverage of protein sequences, especially the PARK7 peptide containing Cys106 residue. Peptides generated by digestion from replicates of each sample were labeled using TMT16-plex to perform tandem mass tag (TMT)-based quantitative proteomics profiling. Following the TMT labeling, all samples were pooled and the peptides conjugated to the DBIA probe were enriched by streptavidin beads and analyzed by LC-MS/MS (Figure 3A). […] All cysteines were represented with the shortest peptide by using the average CR values of all the peptides with the same modified cysteine from the same protein in the same condition.[16],[27],[28]
(§2) A549 cells were seeded into 10 cm plates in 10 mL of media. […] The cells were then washed two times with cold PBS (1 mL per 10 cm plate) and collected by scraping them with a cell scraper. Cells were lysed by sonication in ice-cold PBS and centrifuged at 15,000 rpm for 2 min to remove cell debris. The BCA Gold protein assay (Thermo Fisher Scientific) was performed to determine protein concentration. Each sample (100 μg) was labeled with 500 μM DBIA probe for 1 h in the dark at room temperature (RT). Excess DBIA and disulfide bonds were quenched and reduced, respectively, using 5 mM dithiothreitol (DTT) for 30 min in the dark at RT. Reduced disulfide bonds were alkylated using 20 mM iodoacetamide for 30 min in the dark at RT. […] Digested peptides were labeled with TMTpro16-plex reagents (Thermo Fisher Scientific) in a 1:4 ratio by mass (peptides/TMT reagents) for 1 h at RT. Excess TMT reagent was quenched with 5 μL 6% hydroxylamine for 15 min at RT. All samples were then pooled and lyophilized.
(§3) Nonspecific binding peptides were washed away using the following procedure: 3 × 1 mL of PBS pH 7.4, 2 × 1 mL of PBS with 0.1% SDS pH 7.4, and 3 × 1 mL of HPLC-grade water. DBIA probe-containing peptides were eluted using 700 μL of 50% acetonitrile in 0.1% TFA, lyophilized using a Speedvac, and desalted using a handmade mini-SPE column (10% sorbent material of a Waters, OASIS 1 cm^3 HLB 30 mg cartridge). Column was equilibrated with 200 μL of 90% acetonitrile and 3 × 200 μL of 10 mM NH4HCO3 pH 8.4. The dried sample was dissolved in 200 μL of 10 mM NH4HCO3 pH 8.4, loaded onto the column, washed 3x with 200 μL of 10 mM NH4HCO3 pH 8.4, and eluted into 3 fractions with 150 μL of 10, 20, and 50% acetonitrile (in 10 mM NH4HCO3). Samples were then lyophilized.
(§4) 2.2.04 (www.matrixscience.com) for protein identification. Mascot searches were done with 10 ppm and 0.02 Da deviation for the precursor and fragment mass, respectively, and the enzymes trypsin and EndoGluC was specified, up to three missed cleavages were allowed. Methionine oxidation, acetyl (protein N-term), and DBIA on Cys were set as a variable modification. Carbamidomethyl on Cys and TMTpro on Lys and N-term were set as a fixed modification. Peptides with an FDR <1% were accepted. Peptides were only retained, if they were quantified and if there was exactly one DBIA modification on the peptide. The values for each TMT channel were normalized to the average of the values for the DMSO samples for the same peptide, and these values were named CR. For each peptide, the first entry of the Master Protein Accessions column was chosen as the Master Protein Accession, and the residue number of the cysteine modified by DBIA within the entire protein sequence was determined. Using this information, each peptide was assigned an identifier consisting of the Master Protein Accession and the residue number of the modified cysteine to assign each peptide to the respective modified cysteine residue. Within each replicate, CR values for all peptides with the same identifier (and thus the same modified cysteine residue) were combined by averaging and only the shortest Annotated Sequence was kept as the final Annotated Sequence.

[2] = target: reactive cysteine sites of other proteins in A549 cells (Homo sapiens, UniProt P04080); details: 4 h, P04080_C3 Cystatin-B
From the text: as §1, §2, §3, §4

[3] = target: reactive cysteine sites of other proteins in A549 cells (Homo sapiens, UniProt Q13085); details: 4 h, Q13085_C1297 Acetyl-CoA carboxylase 1
From the text: as §1, §2, §3, §4

[4] = target: T1, reactive cysteine sites of other proteins in A549 cells (Homo sapiens, UniProt O60664); details: 4 h, O60664_C39 Perilipin-3
T1 sequence (O60664 1-434): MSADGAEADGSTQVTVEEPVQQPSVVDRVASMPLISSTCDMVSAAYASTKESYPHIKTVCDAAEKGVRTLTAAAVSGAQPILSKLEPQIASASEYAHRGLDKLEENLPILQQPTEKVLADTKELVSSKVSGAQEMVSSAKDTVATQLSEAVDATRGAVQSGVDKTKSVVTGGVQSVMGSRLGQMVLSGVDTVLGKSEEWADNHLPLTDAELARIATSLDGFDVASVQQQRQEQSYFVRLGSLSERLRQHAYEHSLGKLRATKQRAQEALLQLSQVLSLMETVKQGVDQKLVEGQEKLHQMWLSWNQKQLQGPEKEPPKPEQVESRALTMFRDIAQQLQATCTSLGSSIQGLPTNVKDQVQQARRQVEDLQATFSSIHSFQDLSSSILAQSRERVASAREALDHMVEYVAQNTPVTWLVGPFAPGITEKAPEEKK
From the text: as §1, §2, §3, §4

A549 cells = test: Cell viability assay (CellTiter-Blue); assay type: cell-based, human; details: up to 5 μM, 72 h incubation
Procedure: 5 × 10^3 A549 cells were seeded into 96-well plates. The following day, the indicated final concentrations of JYQ-164 and JYQ-173 were added to the cells, and DMSO was used as a control. Inhibitors were renewed at 36 h, and cells were incubated with them an additional 36 h. Cell viability was measured using the CellTiter-Blue viability assay (Promega). Relative survival was normalized to the DMSO-treated sample and corrected for background signal. page 8: Figure S6. Cytotoxicity assay for JYQ-164 and JYQ-173 in A549 cells. ( A) PARK7 engagement of JYQ -164 and JYQ-173 in A459 cells. A549 cells were incubated with […] The reactions were stopped by addition of NuPAGE™ LDS sample buffer (4x) , followed by cell lysis, SDS-PAGE, fluorescence scanning, and immunoblott in g against PARK7 and β-actin. β-actin was used as a loading control. (B) A549 cells were incubated with indicated concentration of JYQ-164 (left panel) or JYQ-173 (right panel) for 72 h where the inhibitors were renewed after 36 h. Cell viability was measured using the CellTiter-Blue assay. Relative viability was normalized to untreated control and corrected for background signal. S8 (1 picture or pasted object on this page, not shown here)

reactive cysteine sites of other proteins in A549 cells (Homo sapiens, UniProt P40222), sequence (P40222 whole entry): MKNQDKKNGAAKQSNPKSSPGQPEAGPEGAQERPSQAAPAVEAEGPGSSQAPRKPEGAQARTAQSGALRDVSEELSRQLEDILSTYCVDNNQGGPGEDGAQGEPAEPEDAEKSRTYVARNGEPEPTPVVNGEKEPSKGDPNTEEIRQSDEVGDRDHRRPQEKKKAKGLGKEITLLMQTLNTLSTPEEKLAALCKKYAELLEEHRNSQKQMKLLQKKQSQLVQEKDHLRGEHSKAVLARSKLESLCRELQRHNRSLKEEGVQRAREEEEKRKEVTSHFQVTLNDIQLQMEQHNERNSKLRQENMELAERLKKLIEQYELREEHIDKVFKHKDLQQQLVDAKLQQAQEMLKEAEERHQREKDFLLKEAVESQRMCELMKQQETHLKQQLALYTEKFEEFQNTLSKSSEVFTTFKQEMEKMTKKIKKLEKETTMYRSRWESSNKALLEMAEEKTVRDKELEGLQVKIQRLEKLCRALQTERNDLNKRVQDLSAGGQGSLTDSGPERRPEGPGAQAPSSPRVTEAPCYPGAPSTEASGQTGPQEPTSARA
reactive cysteine sites of other proteins in A549 cells (Homo sapiens, UniProt P04080), sequence (P04080 whole entry): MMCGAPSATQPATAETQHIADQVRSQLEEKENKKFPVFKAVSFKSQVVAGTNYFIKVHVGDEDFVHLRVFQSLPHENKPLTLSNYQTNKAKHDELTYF

N#CN1CC[C@@H](C(=O)Nc2nc3c(s2)CN(C(=O)c2cc(-n4ccnn4)ccc2F)CC3)C1 [Compound 84, (R)-1-Cyano-N-(5-(2-fluoro-5-(1H-1,2,3-triazol-1-yl)benzoyl)-4,5,6,7-tetrahydrothiazolo[5,4-c]pyridin-2-yl)pyrrolidine-3-carboxamide]
Average log2 CR (DMSO/inhibitor) ([1]; A549, 0.5 µM): 0.7392
Average log2 CR (DMSO/inhibitor) ([1]; A549, 5 µM): 1.414
Average log2 CR (DMSO/inhibitor) ([2]; A549, 0.5 µM): 0.9051
Average log2 CR (DMSO/inhibitor) ([2]; A549, 5 µM): 1.676
Average log2 CR (DMSO/inhibitor) ([3]; A549, 0.5 µM): 0.6874
Average log2 CR (DMSO/inhibitor) ([3]; A549, 5 µM): 1.886
Average log2 CR (DMSO/inhibitor) ([4]; A549, 0.5 µM): 0.4419
Average log2 CR (DMSO/inhibitor) ([4]; A549, 5 µM): 1.439
cytotoxicity (A549 cells): did not show any cytotoxicity
